One series has as its target T1, PI3Kβ (Homo sapiens, UniProt P42338).
T1 construct: purchased Carna #11-102
Briefly: ADP-Glo Lipid Kinase Assay, PI3Kβ kinase activity. The format is biochemical. The settings on record: ratio of IC50 values. On the procedure: (§1) In this experiment, ADP-Glo Lipid Kinase Assay (Promega #V9102) from Promega was used. The lipid kinases PI3Kα/β/γ/δ catalyzed the ATP-to-ADP reaction in the presence of the substrate PIP2:3PS and ATP. The lipid kinase activity was characterized by measuring the ADP content in the reaction, and the half inhibition concentrations IC50 of the compounds on PI3Kα/β/γ/δ kinase activity were obtained.
(§2) Kinase reactions were carried out in white 384-well plates (Perkin Elmer #6007299). 2 μL of the compound of various concentrations diluted with ddH2O containing 1% DMSO was added to each well, and 2 μL of ddH2O containing 1% DMSO was added to positive control wells. Then 2 μL of 0.1 to 2 nM PI3K kinase solution diluted with 5× kinase buffer (HEPES 250 mM, MgCl2 15 mM, NaCl 250 mM, BSA 0.05%) was added to each well, and 2 μL of 5× kinase buffer was added to the negative control wells. 4 μL of 50 μM substrate PIP2:3PS (Promega #V1701) prepared with 10× Dilution buffer and ddH2O was added to all wells. Finally, 2 μL of 50 to 100 μM ATP solution diluted with water was added to start the reaction. After the reaction was carried out at room temperature for 90 to 120 minutes, 10 µL of ADP-Glo Reagent (containing 10 mM MgCl2) was added to each well, and the reaction was carried out at room temperature for 60 minutes to eliminate excess adenosine triphosphate (ATP) in the reaction. Then 20 μL of Kinase Detection Reagent was added to each well. After the reaction was carried out for 20 minutes at room temperature in the dark, the chemiluminescence was measured by BioTek Synergy H1 microplate reader.
(§3) The percentage inhibition data of the compound-treated well was calculated from positive control wells (DMSO control wells) and negative control wells (no kinase added) on the plate {% inhibition=100−[(test compound value−negative control value)]/(positive control value-negative control value)×100}. IC50 values were calculated using GraphPad prism and using a four-parameter nonlinear logistic formula to fit the data of different concentrations and corresponding percent inhibition.
A general note: ADP-Glo turns the ADP formed in a reaction into a luminescent signal.

A further series addresses T2, PI3Kγ (Homo sapiens, UniProt P48736).
T2 construct: purchased Thermofisher #PV4786
Briefly: ADP-Glo Lipid Kinase Assay, PI3Kγ kinase activity. As to conditions: ratio of IC50 values. The format is biochemical. On the procedure:
as §1, §2, §3

The target in a further series is T3, PI3Kδ (Homo sapiens, UniProt O00329).
T3 construct: purchased Carna #11-103
T3 sequence (O00329 whole entry): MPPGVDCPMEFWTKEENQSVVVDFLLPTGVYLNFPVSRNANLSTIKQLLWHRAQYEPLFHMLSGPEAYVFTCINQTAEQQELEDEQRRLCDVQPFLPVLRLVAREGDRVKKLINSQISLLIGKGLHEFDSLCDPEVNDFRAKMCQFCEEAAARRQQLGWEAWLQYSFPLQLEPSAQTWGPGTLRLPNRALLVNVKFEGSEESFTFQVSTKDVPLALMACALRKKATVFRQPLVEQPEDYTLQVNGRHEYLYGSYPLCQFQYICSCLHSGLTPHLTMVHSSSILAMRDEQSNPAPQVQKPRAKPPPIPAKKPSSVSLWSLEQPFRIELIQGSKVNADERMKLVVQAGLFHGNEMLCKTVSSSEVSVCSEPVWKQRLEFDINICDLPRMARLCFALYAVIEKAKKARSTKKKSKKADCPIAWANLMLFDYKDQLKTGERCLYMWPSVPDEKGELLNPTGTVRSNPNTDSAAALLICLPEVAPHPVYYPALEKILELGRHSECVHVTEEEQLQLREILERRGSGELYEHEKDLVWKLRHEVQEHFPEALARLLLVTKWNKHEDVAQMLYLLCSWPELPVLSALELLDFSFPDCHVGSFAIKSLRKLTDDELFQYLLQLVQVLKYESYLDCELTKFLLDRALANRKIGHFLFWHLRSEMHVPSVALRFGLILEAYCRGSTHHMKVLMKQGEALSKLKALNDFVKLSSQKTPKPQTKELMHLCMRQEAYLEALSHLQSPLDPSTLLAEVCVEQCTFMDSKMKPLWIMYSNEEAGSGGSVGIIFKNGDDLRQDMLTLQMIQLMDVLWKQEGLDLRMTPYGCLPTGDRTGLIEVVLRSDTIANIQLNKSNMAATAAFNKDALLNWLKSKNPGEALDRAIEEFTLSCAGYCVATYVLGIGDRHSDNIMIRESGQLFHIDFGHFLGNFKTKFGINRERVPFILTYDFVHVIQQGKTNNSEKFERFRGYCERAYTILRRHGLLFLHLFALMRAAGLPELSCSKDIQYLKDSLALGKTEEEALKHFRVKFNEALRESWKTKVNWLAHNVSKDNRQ
T3 sequence (P27986 whole entry partner): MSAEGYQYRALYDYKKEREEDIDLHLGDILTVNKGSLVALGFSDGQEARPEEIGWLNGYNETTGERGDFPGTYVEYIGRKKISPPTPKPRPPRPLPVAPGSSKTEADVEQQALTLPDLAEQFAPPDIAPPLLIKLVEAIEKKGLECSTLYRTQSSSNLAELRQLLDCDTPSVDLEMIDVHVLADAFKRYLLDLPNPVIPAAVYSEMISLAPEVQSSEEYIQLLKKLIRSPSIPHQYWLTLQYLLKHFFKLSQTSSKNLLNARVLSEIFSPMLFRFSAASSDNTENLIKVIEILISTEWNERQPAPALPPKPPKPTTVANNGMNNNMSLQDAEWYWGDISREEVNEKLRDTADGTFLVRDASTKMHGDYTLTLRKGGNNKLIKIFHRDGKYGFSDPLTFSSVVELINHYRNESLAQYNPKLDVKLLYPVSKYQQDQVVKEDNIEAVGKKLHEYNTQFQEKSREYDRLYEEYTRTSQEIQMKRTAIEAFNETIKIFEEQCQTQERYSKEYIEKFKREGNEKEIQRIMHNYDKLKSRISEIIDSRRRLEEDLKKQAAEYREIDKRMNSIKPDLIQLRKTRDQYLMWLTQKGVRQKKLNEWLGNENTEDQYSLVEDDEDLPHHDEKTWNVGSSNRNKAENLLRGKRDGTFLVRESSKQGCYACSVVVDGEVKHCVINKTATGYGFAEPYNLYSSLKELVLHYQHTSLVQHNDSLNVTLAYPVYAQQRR
Briefly: ADP-Glo Lipid Kinase Assay, PI3Kδ kinase activity. The format is biochemical. The settings on record: ratio of IC50 values. On the procedure: as §1, §2, §3

The subject of a further series is HCC1954 (H1047R). Briefly: Proliferation inhibition of PI3Kα mutant cancer cells, Cell Titer-Glo, HCC1954. The format is cell-based. As to conditions: Homo sapiens. On the procedure: (§4) The proliferation inhibitory effect of the compounds of the examples on the PI3Kα mutant cancer cell lines (HCC1954, HGC-27 and MKN1) was detected by Cell Titer-Glo method. Cell lines were cultured in RPMI 1640 medium (Gibco #22400089) containing 10% FBS (Gibco #10091148) and 1% P/S (Hyclone #SV30010) under the condition of 37° C. and 5% CO2. The cells were collected before the experiment, and the cell density was adjusted after cell counting. The cells were seeded in a white 96-well plate (Corning #3610) at a density of 1000 to 10000 cells/well, and incubated in an incubator at 37° C. and 5% CO2 overnight. The prepared compound solutions of different concentrations and the corresponding solvent controls were added to the plate. The plate was again incubated in an incubator at 37° C. and 5% CO2 for 48 to 96 hours. Then the cell plate and its contents were equilibrated to room temperature. 20 to 100 μL of Cell Titer-Glo solution (Promega #G7573) was added to each well, and the plate was shaken and mixed well, then incubated at room temperature for 5 to 30 minutes in the dark. The chemiluminescence was measured by a SynergyH1 microplate reader from BioTek.
(§5) The percentage inhibition data of the compound-treated well was calculated from solvent control wells on the plate {% inhibition=100−([…])×100}. IC50 values were calculated using GraphPad prism and using a four-parameter nonlinear logistic formula to fit the data of different concentrations and corresponding percent inhibition.
For orientation: Cellular ATP, detected with luciferase, serves as a proxy for viable cell number.

A further series concerns MKN1 (E545K). Briefly: Proliferation inhibition of PI3Kα mutant cancer cells, Cell Titer-Glo, MKN1. As to conditions: Homo sapiens, MKN-1. The format is cell-based. Here is the method:
as §4, §5

For a further series, the system named is HGC-27 (E542K). Briefly: Proliferation inhibition of PI3Kα mutant cancer cells, Cell Titer-Glo, HGC-27. The format is cell-based. The settings on record: Homo sapiens. On the procedure: as §4, §5
In another series the test system is HCC1954 cell. Briefly: In vivo efficacy test, HCC1954 tumor-bearing nude mice. As to conditions: oral, 10 mg/kg, once/day, 21 days (Example 22: 19 days). Further details: species or system BALB/c nude mice. Here is the method: • a. A strain of HCC1954 cell was taken from the cell bank, recovered with RPMI-1640 medium (RPMI-1640+10% FBS+1% SP), plated in a cell culture flask (cell type, date, name of the experimenter and the like were labeled on the wall of the flask) and cultured in a CO2 incubator (the temperature was 37° C. and the CO2 concentration was 5% in the incubator). • b. Cells were passaged when they covered 80 to 90% of the bottom of the culture flask. After passage, the cells continued to be cultured in the CO2 incubator. This process was repeated until the number of cells was sufficient for the in vivo efficacy test. • c. The cultured cells were collected and counted with an automatic cell counter, and then resuspended with PBS and Matrigel Matrix according to the counting results to prepare a cell suspension (density 5×10^7/mL), which was placed in an ice box for use. 4.3.2 Cell Inoculation • a. The nude mice were labeled with disposable universal ear tags for rats and mice before inoculation. • b. During the inoculation, the cell suspension was mixed well. 0.1 to 1 mL of the cell suspension was drawn with a 1 mL syringe, air bubbles were removed, and then the syringe was placed on an ice pack for use. • c. The nude mouse was bound with the left hand. The position on the right side of the back close to the right shoulder of the nude mouse (inoculation site) was disinfected with 75% alcohol. Inoculation started after 30 seconds. • d. The test nude mice were successively inoculated (each mouse was inoculated with 0.1 mL of cell suspension). 4.3.3 Tumor Measurement, Grouping and Administration of Tumor-Bearing Mice • a. According to the tumor growth, the tumors was measured on 14 to 18 days after inoculation, and the tumor size was calculated. Calculation of tumor volume: tumor volume (mm^3)=length (mm)×width (mm)×width (mm)/2 • b. The tumor-bearing mice were grouped according to their body weight and tumor size by random grouping. • c. The test compounds were administered according to the grouping results (administration route: oral administration; administration dose: 10 mg/kg; administration volume: 10 mL/kg; administration frequency: once/day; administration cycle: 21 days; vehicle: 0.5% CMC/1% Tween 80). • d. Tumors were measured and weighed twice a week after the administration of test compounds began. • e. Animals were euthanized at the end of the experiment. • f. Data were processed by using softwares such as Excel. […] When the tumor regress, TGI (%)=[1−(average tumor volume of the treatment group at the end of the administration−average tumor volume of the treatment group at the beginning of the administration)/average tumor volume of the treatment group at the beginning of the administration]×100%.

The nature of series [1]: Hygroscopicity experiment. The format is physicochemical. The settings on record: RH 80%. On the procedure: Crystal form A of mesylate salt, crystal form D of sulfate salt and crystal form A of ethanesulfonate salt of (S)-2-((2-((R)-4-(difluoromethyl)-2-oxothiazolidin-3-yl)-5,6-dihydrobenzo[f]imidazo[1,2-d][1,4]oxazepin-9-yl)amino)propionamide were placed in saturated water vapor with different relative humidity, so that the compound and water vapor reached a dynamic equilibrium, and the percentage of hygroscopic weight gain of the compound after the equilibrium was calculated.

A short description of series [2]: PK studies in animals of salt crystal forms, intragastric 30 mg/kg. The format is in vivo. The settings on record: 0.5% HPMC K4M suspension. On the procedure: 7.2.1 Crystal form A of mesylate salt, crystal form D of sulfate salt and crystal form A of ethanesulfonate salt of (S)-2-((2-((R)-4-(difluoromethyl)-2-oxothiazolidin-3-yl)-5,6-dihydrobenzo[f]imidazo[1,2-d][1,4]oxazepin-9-yl)amino)propionamide were evenly suspended in an aqueous solution containing 0.5% HPMC (hydroxypropyl methylcellulose) K4M, and then intragastrically administered to rats in duplicate at a dose of 30 mg/kg. The amount of the compound was all converted into the amount of the same compound (S)-2-((2-((R)-4-(difluoromethyl)-2-oxothiazolidin-3-yl)-5,6-dihydrobenzo[f]imidazo[1,2-d][1,4]oxazepin-9-yl)amino)propionamide.

Where [3] appears, read: rat, in vivo, po, rats, 30 mg/kg (as free compound).

T2 sequence (P48736 whole entry): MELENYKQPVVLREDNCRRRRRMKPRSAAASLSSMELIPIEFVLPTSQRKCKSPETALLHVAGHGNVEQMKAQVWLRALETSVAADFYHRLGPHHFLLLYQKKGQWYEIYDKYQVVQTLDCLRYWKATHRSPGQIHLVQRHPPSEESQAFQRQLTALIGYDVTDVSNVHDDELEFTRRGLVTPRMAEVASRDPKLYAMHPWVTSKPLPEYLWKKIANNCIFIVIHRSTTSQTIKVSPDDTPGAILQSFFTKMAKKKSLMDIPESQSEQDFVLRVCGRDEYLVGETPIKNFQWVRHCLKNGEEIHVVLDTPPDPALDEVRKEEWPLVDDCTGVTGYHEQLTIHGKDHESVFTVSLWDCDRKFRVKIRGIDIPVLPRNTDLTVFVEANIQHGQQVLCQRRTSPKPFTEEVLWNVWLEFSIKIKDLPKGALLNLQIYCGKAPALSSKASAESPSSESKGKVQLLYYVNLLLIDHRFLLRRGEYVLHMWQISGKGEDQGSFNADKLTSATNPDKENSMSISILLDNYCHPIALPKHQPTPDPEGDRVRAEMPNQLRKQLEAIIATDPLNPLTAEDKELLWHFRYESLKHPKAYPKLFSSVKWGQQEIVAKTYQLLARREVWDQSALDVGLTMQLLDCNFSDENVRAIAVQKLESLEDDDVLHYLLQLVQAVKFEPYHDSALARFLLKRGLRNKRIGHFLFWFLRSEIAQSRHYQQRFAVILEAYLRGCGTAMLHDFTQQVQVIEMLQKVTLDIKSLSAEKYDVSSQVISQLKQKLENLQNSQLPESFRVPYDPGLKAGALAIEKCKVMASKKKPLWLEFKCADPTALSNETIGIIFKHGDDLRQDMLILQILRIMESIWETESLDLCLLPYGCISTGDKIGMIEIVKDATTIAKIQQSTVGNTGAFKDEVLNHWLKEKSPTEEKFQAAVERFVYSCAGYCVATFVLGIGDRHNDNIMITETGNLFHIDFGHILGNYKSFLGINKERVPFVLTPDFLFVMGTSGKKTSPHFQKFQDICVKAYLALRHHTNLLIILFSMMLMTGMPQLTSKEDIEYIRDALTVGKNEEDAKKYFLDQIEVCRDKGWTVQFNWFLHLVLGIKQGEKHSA
T1 sequence (P42338 whole entry): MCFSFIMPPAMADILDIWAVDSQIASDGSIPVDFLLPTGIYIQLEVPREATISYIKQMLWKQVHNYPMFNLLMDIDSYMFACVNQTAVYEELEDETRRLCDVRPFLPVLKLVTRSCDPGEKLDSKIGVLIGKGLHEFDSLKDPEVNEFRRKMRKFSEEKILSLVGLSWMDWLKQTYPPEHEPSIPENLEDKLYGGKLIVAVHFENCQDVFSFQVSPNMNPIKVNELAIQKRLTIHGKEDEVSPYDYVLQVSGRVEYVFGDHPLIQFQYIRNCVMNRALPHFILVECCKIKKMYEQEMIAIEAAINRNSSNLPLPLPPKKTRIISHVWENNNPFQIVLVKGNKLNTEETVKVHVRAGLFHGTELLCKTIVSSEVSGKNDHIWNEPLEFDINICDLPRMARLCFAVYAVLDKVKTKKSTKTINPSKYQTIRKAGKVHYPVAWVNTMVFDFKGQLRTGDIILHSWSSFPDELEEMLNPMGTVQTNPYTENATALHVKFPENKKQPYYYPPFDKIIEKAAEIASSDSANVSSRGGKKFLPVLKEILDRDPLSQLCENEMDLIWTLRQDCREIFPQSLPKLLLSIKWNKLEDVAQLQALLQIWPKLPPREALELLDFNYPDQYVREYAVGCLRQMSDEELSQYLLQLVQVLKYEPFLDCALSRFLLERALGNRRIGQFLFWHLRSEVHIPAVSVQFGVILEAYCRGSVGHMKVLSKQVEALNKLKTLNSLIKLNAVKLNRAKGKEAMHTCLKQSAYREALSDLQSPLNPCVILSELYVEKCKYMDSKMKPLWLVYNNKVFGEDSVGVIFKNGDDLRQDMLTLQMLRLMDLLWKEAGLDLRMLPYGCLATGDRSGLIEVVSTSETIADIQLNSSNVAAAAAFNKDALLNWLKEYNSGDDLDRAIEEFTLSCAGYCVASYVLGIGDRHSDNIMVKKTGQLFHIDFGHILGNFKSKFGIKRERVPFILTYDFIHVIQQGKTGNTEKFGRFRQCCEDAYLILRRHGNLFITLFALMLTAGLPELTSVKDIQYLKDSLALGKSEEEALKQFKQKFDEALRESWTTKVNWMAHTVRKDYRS
T1 sequence (P27986 whole entry partner): as the sequence (P27986 whole entry partner) above

As usually defined, the IC50 is the point on the concentration scale where inhibition reaches its midpoint. As for `COC[C@H](Nc1ccc2c(c1)OCCn1cc(N3C(=O)SC[C@H]3C(F)F)nc1-2)C(N)=O` [Example 52, (S)-2-((2-((R)-4-(difluoromethyl)-2-oxothiazolidin-3-yl)-5,6-dihydrobenzo[f]imidazo[1,2-d][1,4]oxazepin-9-yl)amino)-3-methoxypropionamide], the “Selectivity of PI3Kα vs PI3Kβ” value on PI3Kβ came out at 754. On PI3Kγ, the “Selectivity of PI3Kα vs PI3Kγ” value is recorded as 376. Moreover, the “Selectivity of PI3Kα vs PI3Kδ” value on PI3Kδ came out at 139. Also, the IC50 was 57 nM with HCC1954 (H1047R), 109 nM in the series on MKN1 (E545K) and 137 nM in the series on HGC-27 (E542K). In the series on HCC1954 cell, the “Tumor growth inhibition rate” value was found to be 98%.
Regarding `C[C@H](Nc1ccc2c(c1F)OCCn1cc(N3C(=O)SC[C@H]3C(F)F)nc1-2)C(N)=O` [Example 50, (S)-2-((2-((R)-4-(difluoromethyl)-2-oxothiazolidin-3-yl)-8-fluoro-5,6-dihydrobenzo[f]imidazo[1,2-d][1,4]oxazepin-9-yl)amino)propionamide], the “Selectivity of PI3Kα vs PI3Kβ” value on PI3Kβ was 197. Also, the “Selectivity of PI3Kα vs PI3Kγ” value at PI3Kγ is 103. Moreover, the “Selectivity of PI3Kα vs PI3Kδ” value at PI3Kδ worked out at 81. Also, the IC50 with HCC1954 (H1047R) turned out to be 98 nM; in the series on MKN1 (E545K), 118 nM; with HGC-27 (E542K), 233 nM. Also, the “Tumor growth inhibition rate” value in the series with HCC1954 cell was 96%.
What is called AUC(0-inf) is the area under the concentration-time curve extrapolated to infinity. As a reminder, the AUC(0-t) is exposure summed from dosing to a finite time, without extrapolation to infinity. By Cmax is commonly meant the maximum level reached in the sampled fluid or tissue. What is called Tmax is the time from dosing to the highest level. In general, half-life refers to how long it takes for the measured level to halve. Regarding `C[C@H](Nc1ccc2c(c1)OCCn1cc(N3C(=O)SC[C@H]3C(F)F)nc1-2)C(N)=O.O=S(=O)(O)O` [crystal form D of sulfate salt, (S)-2-((2-((R)-4-(difluoromethyl)-2-oxothiazolidin-3-yl)-5,6-dihydrobenzo[f]imidazo[1,2-d][1,4]oxazepin-9-yl)amino)propionamide], in [1], the hygroscopic weight gain is 1.256% and the “hygroscopicity (in words)” value is listed as “had hygroscopicity”. In addition, the “exposure in rats (in words)” value in series [2] (30 mg/kg) is reported as “higher exposures”. In addition, in series [2] (setting [3]), the AUC(0-inf) came out at 9600 ng·h/mL, the AUC(0-t) amounted to 9420 ng·h/mL, the Cmax came out at 1360 ng/mL and the Tmax is 1 h. Moreover, the half-life in [2] (setting [3]) is 3.3 h. Besides, the MRT inf in series [2] (rat, in vivo, po, rats, 30 mg/kg (as free compound), read-out: MRT0-∞) is 5.77 h.
On to `C[C@H](Nc1ccc2c(c1)OCCn1cc(N3C(=O)O[C@H](C)[C@H]3C(F)F)nc1-2)C(N)=O` [Example 25, (S)-2-((2-((4S,5R)-4-(difluoromethyl)-5-methyl-2-oxooxazolidin-3-yl)-5,6-dihydrobenzo[f]imidazo[1,2-d][1,4]oxazepin-9-yl)amino)propionamide], for which the “Selectivity of PI3Kα vs PI3Kβ” value on PI3Kβ turned out to be 1499. Further, the “Selectivity of PI3Kα vs PI3Kγ” value at PI3Kγ was determined as 401. Besides, the “Selectivity of PI3Kα vs PI3Kδ” value at PI3Kδ is 280. In addition, the IC50 with HCC1954 (H1047R) is 79 nM; in the series on MKN1 (E545K), 84 nM; with HGC-27 (E542K), 93 nM. Also, the “Tumor growth inhibition rate” value with HCC1954 cell stood at 120%.

The values are drawn from US12624050B2, “Three fused ring derivative-containing salt or crystal form and pharmaceutical composition thereof” (Shanghai Hansoh Biomedical Co., Ltd., priority 2019, dated 2026).
